Assay results taken from patent publication US8822449B2, “Substituted aminoindanes and analogs thereof, and the pharmaceutical use thereof” (Sanofi, priority 2008, dated 2014).

Biological target: T1, sodium-proton exchanger of subtype 3 (NHE3) (Homo sapiens, UniProt P48764)
T1 construct: expressed in transfected cells
T1 sequence (P48764 26-834): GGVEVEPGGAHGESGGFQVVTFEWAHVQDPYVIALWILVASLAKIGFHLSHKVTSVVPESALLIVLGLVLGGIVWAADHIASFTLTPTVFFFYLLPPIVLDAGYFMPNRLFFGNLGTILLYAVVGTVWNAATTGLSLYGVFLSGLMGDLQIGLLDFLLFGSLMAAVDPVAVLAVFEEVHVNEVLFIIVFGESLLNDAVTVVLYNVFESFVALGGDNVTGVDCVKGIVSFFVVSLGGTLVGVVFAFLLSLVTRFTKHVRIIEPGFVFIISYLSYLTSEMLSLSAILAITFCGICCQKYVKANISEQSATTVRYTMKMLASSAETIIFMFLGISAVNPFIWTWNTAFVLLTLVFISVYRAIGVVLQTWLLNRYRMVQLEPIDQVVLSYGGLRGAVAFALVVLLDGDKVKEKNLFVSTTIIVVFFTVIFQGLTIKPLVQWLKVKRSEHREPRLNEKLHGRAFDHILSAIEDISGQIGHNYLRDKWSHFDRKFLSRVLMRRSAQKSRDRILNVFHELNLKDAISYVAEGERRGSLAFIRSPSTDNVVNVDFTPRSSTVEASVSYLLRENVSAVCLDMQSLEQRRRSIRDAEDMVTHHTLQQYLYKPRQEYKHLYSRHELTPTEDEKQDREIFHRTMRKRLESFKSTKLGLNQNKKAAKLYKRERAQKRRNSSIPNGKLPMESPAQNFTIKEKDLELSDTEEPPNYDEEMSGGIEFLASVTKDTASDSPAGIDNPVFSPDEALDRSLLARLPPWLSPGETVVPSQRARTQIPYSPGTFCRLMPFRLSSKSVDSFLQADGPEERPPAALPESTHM
Test: Recovery of intracellular pH (pHi) after acidification in LAP1 cells stably expressing NHE3 (BCECF fluorescence, FLIPR)
Type: cell-based
Conditions: LAP1 cells stably expressing NHE3; pH recovery after acidification; range 1 is % inhibition at 10 μM; read-out: Activity range (inhibitory effect on NHE3)

Row | IC50 | inhibition at 10 µM | Compound
1 | < 1000 nM |  | Cc1nnc(C)n1-c1ccc(O[C@H]2c3cc(Cl)cc(Cl)c3C[C@@H]2N2CCCN(C)CC2)c(F)c1 [Example 346, 1-{trans-(1S,2S)-4,6-dichloro-1-[4-(3,5-dimethyl-[1,2,4]triazol-4-yl)-2-fluorophenoxy]indan-2-yl}-4-methyl-[1,4]diazepane]
2 | 1000 to 10000 nM |  | c1ccc2c(c1)C[C@@H](N1C[C@H]3CNC[C@H]3C1)[C@@H]2Oc1cccc2[nH]ccc12 (racemic) [Example 504, 4-[rac-trans-(1,2)-2-(Hexahydropyrrolo[3,4-c]pyrrol-2-yl)indan-1-yloxy]-1H-indole]
3 | 1000 to 10000 nM |  | CS(=O)(=O)c1ccccc1O[C@H]1c2cc(Cl)cc(Cl)c2C[C@@H]1N1CCNCC1 [Example 246, 1-[(1S,2S)-4,6-dichloro-1-(2-methanesulfonylphenoxy)indan-2-yl]piperazine]
4 |  | 20 to 50% | COc1cc(Cl)ccc1O[C@H]1c2ccccc2CC[C@@H]1N1CCC[C@@H](N)C1 (racemic) [Example 64, (R)-1-[rac-trans-(1,2)-1-(4-chloro-2-methoxyphenoxy)-1,2,3,4-tetrahydronaphthalen-2-yl]piperidin-3-ylamine]
5 | 1000 to 10000 nM |  | CS(=O)(=O)c1ccc(O[C@H]2c3cc(Cl)cc(Cl)c3C[C@@H]2NC2CCCC2)cc1 [Example 747, Cyclopentyl-[trans-(1S,2S)-4,6-dichloro-1-(4-methanesulfonyl-phenoxy)-indan-2-yl]-amine]
6 | 1000 to 10000 nM |  | Cc1nnc(C)n1-c1ccc(O[C@H]2c3ccccc3C[C@@H]2N2CCC[C@@H](N)C2)cc1 [Example 121, (R)-1-{trans-(1S,2S)-1-[4-(3,5-dimethyl-[1,2,4]triazol-4-yl)phenoxy]indan-2-yl}piperidin-3-ylamine]
7 | < 1000 nM |  | CS(=O)(=O)c1ccc(O[C@H]2c3cc(Cl)cc(Cl)c3C[C@@H]2N2CCC[C@H]2CN2CCCC2)cc1 [Example 195, (S)-1-[trans-(1S,2S)-4,6-dichloro-1-(4-methanesulfonylphenoxy)indan-2-yl]-2-pyrrolidin-1-ylmethylpyrrolidine]
8 |  | 20 to 50% | N#Cc1c(F)cccc1O[C@H]1c2ccccc2CC[C@@H]1N1CCC[C@@H](N)C1 (racemic) [Example 367, 2-[rac-trans-(1,2)-2-((R)-3-aminopiperidin-1-yl)-1,2,3,4-tetrahydronaphthalen-1-yloxy]-6-fluorobenzonitrile]
9 | 1000 to 10000 nM |  | CCc1ccc(O[C@@H]2c3ccccc3C[C@H]2N2CCC(CN)CC2)c(C(C)(C)C)c1 (racemic) [Example 609, C-{1-[rac-trans-(1,2)-1-(2-tert-butyl-4-ethylphenoxy)indan-2-yl]piperidin-4-yl}methylamine]
10 | 1000 to 10000 nM |  | NS(=O)(=O)c1ccc(O[C@H]2c3cc(F)ccc3C[C@@H]2N2CCCC2)cc1 (racemic) [Example 474, 4-(rac-trans-(1,2)-6-fluoro-2-pyrrolidin-1-ylindan-1-yloxy)benzenesulfonamide]
11 |  | 20 to 50% | N[C@@H]1CCCN([C@H]2CCc3ccccc3[C@@H]2Oc2ccccc2OC(F)(F)F)C1 (racemic) [Example 50, (R)-1-[rac-trans-(1,2)-1-(2-trifluoromethoxyphenoxy)-1,2,3,4-tetrahydronaphthalen-2-yl]piperidin-3-ylamine]
12 | < 1000 nM |  | N#Cc1ccc(O[C@H]2c3cc(Cl)cc(Cl)c3C[C@@H]2N2CCNCC2)c(F)c1 [Example 456, 4-((1S,2S)-4,6-dichloro-2-piperazin-1-ylindan-1-yloxy)-3-fluorobenzonitrile]
13 | < 1000 nM |  | Cc1nnc(C)n1-c1ccc(O[C@H]2c3cc(Cl)cc(Cl)c3C[C@@H]2N2CCCN(C)CC2)c(Cl)c1 [Example 345, 1-{trans-(1S,2S)-4,6-dichloro-1-[2-chloro-4-(3,5-dimethyl-[1,2,4]triazol-4-yl)phenoxy]indan-2-yl}-4-methyl-[1,4]diazepane]
14 | 1000 to 10000 nM |  | O=c1oc2ccc(O[C@@H]3c4ccccc4C[C@H]3N3C[C@H]4CNC[C@H]4C3)cc2s1 (racemic) [Example 577, 5-[rac-trans-(1,2)-2-(hexahydropyrrolo[3,4-c]pyrrol-2-yl)indan-1-yloxy]benzo[1,3]oxathiol-2-one]
15 | 1000 to 10000 nM |  | CN1CCN([C@H]2Cc3c(Cl)cc(Cl)cc3[C@@H]2Oc2ccc(S(C)(=O)=O)cc2)CC1 [Example 306, 1-[trans-(1S,2S)-4,6-dichloro-1-(4-methanesulfonylphenoxy)indan-2-yl]-4-methylpiperazine]
16 | 1000 to 10000 nM |  | O=C1CNC(=O)N1c1ccc(Cl)c(O[C@H]2c3cc(Cl)cc(Cl)c3C[C@@H]2N2CC[C@@H](O)C2)c1 [Example 433, 3-{4-chloro-3-[(1S,2S)-4,6-dichloro-2-((R)-3-hydroxypyrrolidin-1-yl)indan-1-yloxy]phenyl}imidazolidine-2,4-dione]
17 | < 1000 nM |  | NC1CCN([C@@H]2Cc3ccccc3[C@H]2Oc2ccc(S(N)(=O)=O)c(Cl)c2Cl)C1 (mixture of isomers) [Example 542, 4-[rac-trans-(1,2)-2-(3-aminopyrrolidin-1-yl)indan-1-yloxy]-2,3-dichlorobenzenesulfonamide]
18 | 1000 to 10000 nM |  | O=C1OCc2cc(O[C@H]3c4ccccc4C[C@@H]3N3CCCC3)ccc21 (racemic) [Example 571, 5-(rac-trans-(1,2)-2-pyrrolidin-1-ylindan-1-yloxy)-3H-isobenzofuran-1-one]
19 | < 1000 nM |  | Cc1nnc(C)n1-c1ccc(O[C@H]2c3cc(Cl)cc(Cl)c3C[C@@H]2N2CC[C@@](C)(O)C2)cc1 (racemic) [Example 111, (R)-1-{(1S,2S)-4,6-dichloro-1-[4-(3,5-dimethyl-[1,2,4]triazol-4-yl)phenoxy]indan-2-yl}-3-methylpyrrolidin-3-ol]
20 |  | 20 to 50% | N[C@H]1CCCN([C@H]2CCc3ccccc3[C@@H]2Oc2cnc3ccccc3c2)C1 (racemic) [Example 192, (S)-1-[rac-trans-(1,2)-1-(quinolin-3-yloxy)-1,2,3,4-tetrahydronaphthalen-2-yl]piperidin-3-ylamine]
21 |  | 20 to 50% | O=[N+]([O-])c1ccc(O[C@H]2c3ccccc3C[C@@H]2N2CCCC2)c(Cl)c1 (racemic) [Example 251, 1-[1-(2-chloro-4-nitrophenoxy)indan-2-yl]pyrrolidine]
22 | < 1000 nM |  | Cc1nnc(C)n1-c1ccc(O[C@H]2c3cc(Cl)cc(Cl)c3C[C@@H]2N2CC[C@@H](O)C2)c(F)c1F [Example 126, (R)-1-{trans-(1S,2S)-4,6-dichloro-1-[4-(3,5-dimethyl-[1,2,4]triazol-4-yl)-2,3-difluorophenoxy]indan-2-yl}pyrrolidin-3-ol]
23 |  | 20 to 50% | N#Cc1ccc(O[C@H]2c3cc(Cl)cc(Cl)c3C[C@@H]2N2CCC2)c(F)c1 [Example 454, 4-((1S,2S)-2-azetidin-1-yl-4,6-dichloroindan-1-yloxy)-3-fluorobenzonitrile]
24 |  | 20 to 50% | CS(=O)(=O)c1ccc(O[C@H]2c3cc(Cl)cc(Cl)c3C[C@@H]2N2CCC(S(C)(=O)=O)C2)cc1 (mixture of isomers) [Example 249, 1-[(1S,2S)-4,6-dichloro-1-(4-methanesulfonylphenoxy)indan-2-yl]-3-methanesulfonylpyrrolidine]

Row | Compound | IC50 | inhibition at 10 µM
25 | CCN(CC)[C@@H]1Cc2ccccc2[C@H]1Oc1cccc(N2CCNCC2)c1 (racemic) [Example 626, Diethyl-[rac-trans-(1,2)-1-(3-piperazin-1-ylphenoxy)indan-2-yl]amine] | 1000 to 10000 nM | 
